The text below walks through data of patent US7485667B2, “Acetylenic aryl sulfonate hydroxamic acid tace and matrix metalloproteinase inhibitors” (Wyeth Holdings Corporation, priority 2002, dated 2009).

Assay [1] concerns the target T1, MMP-1 (Homo sapiens, UniProt P03956).
T1 sequence (P03956 100-469): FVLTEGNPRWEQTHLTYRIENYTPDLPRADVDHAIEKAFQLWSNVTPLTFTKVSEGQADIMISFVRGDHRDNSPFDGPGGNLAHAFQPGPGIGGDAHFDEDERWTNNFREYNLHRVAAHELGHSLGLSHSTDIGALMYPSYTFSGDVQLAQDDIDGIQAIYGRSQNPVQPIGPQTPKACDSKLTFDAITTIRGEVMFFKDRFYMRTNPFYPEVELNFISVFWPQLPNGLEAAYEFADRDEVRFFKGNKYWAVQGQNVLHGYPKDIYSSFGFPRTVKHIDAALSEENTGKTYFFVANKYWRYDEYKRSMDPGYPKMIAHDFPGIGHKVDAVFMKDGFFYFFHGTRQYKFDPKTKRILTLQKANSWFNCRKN
Description: MMP-1 inhibition (thiopeptide or fluorescent peptide substrate). The assay is classed as biochemical. To be noted: read-out: MMP-1 % Inhib. On the procedure:
(§1) Test Procedures for Measuring MMP-1 and MMP-13 Inhibition
(§2) These standard pharmacological test procedures are based on the cleavage of a thiopeptide substrates such as Ac-Pro-Leu-Gly(2-mercapto-4-methyl-pentanoyl)-Leu-Gly-OEt by the matrix metalloproteinases MMP-1 or MMP-13 (collagenases) which results in the release of a substrate product that reacts colorimetrically with DTNB (5,5′-dithiobis(2-nitro-benzoic acid)). The enzyme activity is measured by the rate of the color increase. The thiopeptide substrate is made up fresh as a 20 mM stock in 100% DMSO and the DTNB is dissolved in 100% DMSO as a 100 mM stock and stored in the dark at room temperature. Both the substrate and DTNB are diluted together to 1 mM with substrate buffer (50 mM HEPES pH 7.5, 5 mM CaCl2) before use. The stock of enzyme is diluted with buffer (50 mM HEPES, pH 7.5, 5 mM CaCl2, 0.02% Brij) to the desired final concentration. The buffer, enzyme, vehicle or inhibitor, and DTNB/substrate are added in this order to a 96 well plate (total reaction volume of 200 μl) and the increase in color is monitored spectrophotometrically for 5 minutes at 405 nm on a plate reader and the increase in color over time is plotted as a linear line.
(§3) Alternatively, a fluorescent peptide substrate is used. In this test procedure, the peptide substrate contains a fluorescent group and a quenching group. Upon cleavage of the substrate by an MMP, the fluorescence that is generated is quantitated on the fluorescence plate reader. The assay is run in HCBC assay buffer (50 mM HEPES, pH 7.0, 5 mM Ca^+2, 0.02% Brij, 0.5% Cysteine), with human recombinant MMP-1 or MMP-13. The substrate is dissolved in methanol and stored frozen in 1 mM aliquots. For the assay, substrate and enzymes are diluted in HCBC buffer to the desired concentrations. Compounds are added to the 96 well plate containing enzyme and the reaction is started by the addition of substrate. The reaction is read (excitation 340 nm, emission 444 nm) for 10 min. and the increase in fluorescence over time is plotted as a linear line.
(§4) For either the thiopeptide or fluorescent peptide test procedures, the slope of the line is calculated and represents the reaction rate. The linearity of the reaction rate is confirmed (r^2>0.85). The mean (x±sem) of the control rate is calculated and compared for statistical significance (p<0.05) with drug-treated rates using Dunnett's multiple comparison test. Dose-response relationships can be generated using multiple doses of drug and IC50 values with 95% Cl are estimated using linear regression.

In assay [2] the target is MMP-13 (Homo sapiens, UniProt P45452). Description: MMP-13 inhibition (thiopeptide or fluorescent peptide substrate). Particulars: read-out: MMP-13 % Inhib. The assay is classed as biochemical. On the procedure: as §1, §2, §3, §4
The target of assay [3] is TNF-α converting enzyme (TACE) (Homo sapiens, UniProt P78536). Description: TACE inhibition (fluorescent peptidyl substrate). Format: biochemical. As for the experimental part:
Test Procedure for Measuring TACE Inhibition
Using 96-well black microtiter plates, each well receives a solution composed of 10 μL TACE (final concentration 1 μg/mL), 70 μL Tris buffer, pH 7.4 containing 10% glycerol (final concentration 10 mM), and 10 μL of test compound solution in DMSO (final concentration 1 μM, DMSO concentration <1%) and incubated for 10 minutes at room temperature. The reaction is initiated by addition of a fluorescent peptidyl substrate (final concentration 100 μM) to each well and then shaking on a shaker for 5 sec.
The reaction is read (excitation 340 nm, emission 420 nm) for 10 min. and the increase in fluorescence over time is plotted as a linear line. The slope of the line is calculated and represents the reaction rate.
The linearity of the reaction rate is confirmed (r^2>0.85). The mean (x±sem) of the control rate is calculated and compared for statistical significance (p<0.05) with drug-treated rates using Dunnett's multiple comparison test. Dose-response relationships can be generate using multiple doses of drug and IC50 values with 95% Cl are estimated using linear regression.

Assay [4] deals with THP-1 cells. Description: THP-1 soluble protein assay (LPS-stimulated THP-1 cells, ELISA). The assay is classed as cell-based. To be noted: Homo sapiens. The source says: Human Monocytic THP-1 Cell Differentiation Assay for Soluble Proteins (THP-1 Soluble Protein Assay)
Mitogenic stimulation of THP-1 cells cause differentiation into macrophage like cells with concomitant secretion of tumor necrosis factor (TNF-a) and TNF receptor (TNF-R p75/80 and TNF-R p55/60) and Interleukin-8 (IL-8), among other proteins. In addition, non-stimulated THP-1 cells shed both the p75/80 and the p55/60 receptors over time. The release of membrane bound TNF-α and possibly TNF-R p75/80 and TNF-R p55/60, but not IL-8, is mediated by an enzyme called TNF-a converting enzyme or TACE.
THP-1 cells (from ATCC) are a human monocytic cell line which are obtained from the peripheral blood of a person with acute monocytic leukemia. They can be grown in culture and differentiated into macrophage like cells by stimulation with mitogens.
For the assay, THP-1 cells are seeded from an ATCC stock which is previously grown and frozen back at 5×10^6/ml/vial. One vial is seeded into a T25-flask with 16 mls of RPMI-1640 with glutamax (Gibco) media containing 10% fetal bovine serum, 100 units/ml penicillin, 100 μg/ml streptomycin, and 5×10^−5 M 2-mercapto-ethanol (THP-1 media). Each vial of cells are cultured for about two weeks prior to being used for an assay and then are used for only 4 to 6 weeks to screen compounds. Cells are subcultured on Mondays and Thursdays to a concentration of 1×10^5/ml.
To perform an assay, the THP-1 cells are co-incubated in a 24 well plate with […] of a 24 mg/ml stock of Lipopolysacharide (LPS) (Calbiochem Lot# B13189) at 37° C. in 5% CO2 at a concentration of 1.091×10^6 cells/ml (1.1 ml/well) for a total of 24 hours. At the same time, […] of drug, vehicle or THP-1 media is plated in appropriate wells to give a final volume of 1.2 ml/well. Standard and test compounds are dissolved in DMSO at a concentration of 36 mM and diluted from here to the appropriate concentrations in THP-1 media and added to the wells at the beginning of the incubation period to give final concentrations of […], 300 nM, and 100 nM. Cell exposure to DMSO is limited to 0.1% final concentration. Positive control wells are included in the experiment which had mitogen added but no drug. Vehicle control wells are included as well, which are identical to the positive control wells, except that DMSO is added to give a final concentration of 0.083%. Negative control wells are included in the experiment which had vehicle but no mitogen or drug added to the cells. Compounds can be evaluated for their effect on basal (non-stimulated) shedding of the receptors by replacing the LPS with […] of THP-1 media. Plates are placed into an incubator set at 5% CO2 and at 37° C. […]
In addition, at the 24 hours timepoint, and the cells for each treatment group are collected by resuspension in 500 μl/well of THP-1 media and transferred into a FACS tube. […] The samples are run on a Becton Dickinson FaxCaliber FLOW cytometry machine and the amount of dye taken up by each cell is measured in the high red wavelength (FL3). […] The percent of live cells is calculated by the number of cells not stained with PI, divided by the total number of cells in the sample. The viability values calculated for the drug treated groups are compared to the viability value calculated for the vehicle treated mitogen stimulated group (“vehicle positive control”) to determine the “percent change from control”. […]
For orientation: In an ELISA, binding on a coated surface is turned into a signal by an enzyme label.

Chain of TNF-α converting enzyme (TACE) (P78536 215-824, species assumed): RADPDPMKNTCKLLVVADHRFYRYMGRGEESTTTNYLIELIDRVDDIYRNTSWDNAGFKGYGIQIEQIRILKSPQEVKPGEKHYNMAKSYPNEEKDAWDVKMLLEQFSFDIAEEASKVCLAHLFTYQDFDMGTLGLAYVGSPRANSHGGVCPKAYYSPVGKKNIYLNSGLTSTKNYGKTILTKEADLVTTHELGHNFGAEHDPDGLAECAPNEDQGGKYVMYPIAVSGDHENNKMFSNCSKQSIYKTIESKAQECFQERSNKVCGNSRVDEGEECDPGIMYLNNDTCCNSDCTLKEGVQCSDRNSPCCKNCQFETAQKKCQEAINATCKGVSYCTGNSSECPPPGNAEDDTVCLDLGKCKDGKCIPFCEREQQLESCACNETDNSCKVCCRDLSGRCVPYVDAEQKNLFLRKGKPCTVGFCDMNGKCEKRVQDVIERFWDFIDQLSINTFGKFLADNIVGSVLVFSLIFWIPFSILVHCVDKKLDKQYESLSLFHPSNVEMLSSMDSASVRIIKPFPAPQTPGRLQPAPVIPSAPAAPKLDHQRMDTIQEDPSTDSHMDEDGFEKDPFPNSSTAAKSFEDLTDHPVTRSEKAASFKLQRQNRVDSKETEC

For orientation: IC50 means the midpoint of a concentration-inhibition curve. The low end stands for higher potency, the high end for lower potency. For the molecule `CC#CCOc1ccc(S(=O)(=O)Oc2cc3ccccc3cc2C(=O)NO)cc1` [Example 5, 3-[(Hydroxyamino)carbonyl]-2-naphthyl 4-(2-butynyloxy)benzenesulfonate], the inhibition at 10 µM was found to be 16% in assay [1] and 64% in assay [2]. In assay [3], this molecule yielded an IC50 of 0.067 µM. The inhibition at 1 µM in assay [4] was 0%.

In the case of `CC#CCOc1ccc(S(=O)(=O)Oc2c(C(=O)NO)cc(C(C)C)cc2C(C)C)cc1` [Example 4, 2-[(Hydroxyamino)carbonyl]-4,6-diisopropylphenyl 4-(2-butynyloxy)benzenesulfonate], the inhibition at 10 µM was 3% in assay [1] and 45% in assay [2]. In assay [3], this molecule came in with an IC50 of 0.361 µM. Besides, the inhibition at 1 µM in assay [4] worked out at 6%.

Consider `CC#CCOc1ccc(S(=O)(=O)Oc2c(C)cccc2C(=O)NO)cc1` [Example 1, 2-[(Hydroxyamino)carbonyl]-6-methylphenyl 4-(2-butynyloxy)benzenesulfonate], for which the inhibition at 10 µM came out at 11% in assay [1] and 38% in assay [2]. Moreover, 0.019 µM corresponded to half-maximal inhibition in assay [3] (IC50). Also, in assay [4], the inhibition at 1 µM worked out at 11%.

Consider `CC#CCOc1ccc(S(=O)(=O)Oc2ccc(C)cc2C(=O)NO)cc1` [Example 3, 2-[(Hydroxyamino)carbonyl]-4-methylphenyl 4-(2-butynyloxy)benzenesulfonate], for which the inhibition at 10 µM came to 11% in assay [1] and 27% in assay [2]. Half-maximal inhibition in assay [3] (IC50) was put at 0.031 µM. This molecule came in with an inhibition at 1 µM in assay [4] of 0%.

Take `CC#CCOc1ccc(S(=O)(=O)Oc2c(OC)cccc2C(=O)NO)cc1` [Example 2, 2-[(Hydroxyamino)carbonyl]-6-methoxyphenyl 4-(2-butynyloxy)benzenesulfonate]: the results for the inhibition at 10 µM in assay [1] and in assay [2] were 7% and 56%, respectively. Further, in assay [3], the IC50 is 0.013 µM. In assay [4], this molecule showed an inhibition at 1 µM of 1%.
